Data as given in article PMC4503722, “Novel Phenotypic Outcomes Identified for a Public Collection of Approved Drugs from a Publicly Accessible Panel of Assays” (PLoS ONE, 2015).

Molecular target: T1, hKDR (Homo sapiens, UniProt P35968)
T1 construct: purchased Cerep (LANCE kinase assay platform, contract assay)
Assay: Cerep LANCE kinase assay hKDR (S1 assay 32)
Type: biochemical
Details: assay number 32

T1 sequence (P35968 20-1356): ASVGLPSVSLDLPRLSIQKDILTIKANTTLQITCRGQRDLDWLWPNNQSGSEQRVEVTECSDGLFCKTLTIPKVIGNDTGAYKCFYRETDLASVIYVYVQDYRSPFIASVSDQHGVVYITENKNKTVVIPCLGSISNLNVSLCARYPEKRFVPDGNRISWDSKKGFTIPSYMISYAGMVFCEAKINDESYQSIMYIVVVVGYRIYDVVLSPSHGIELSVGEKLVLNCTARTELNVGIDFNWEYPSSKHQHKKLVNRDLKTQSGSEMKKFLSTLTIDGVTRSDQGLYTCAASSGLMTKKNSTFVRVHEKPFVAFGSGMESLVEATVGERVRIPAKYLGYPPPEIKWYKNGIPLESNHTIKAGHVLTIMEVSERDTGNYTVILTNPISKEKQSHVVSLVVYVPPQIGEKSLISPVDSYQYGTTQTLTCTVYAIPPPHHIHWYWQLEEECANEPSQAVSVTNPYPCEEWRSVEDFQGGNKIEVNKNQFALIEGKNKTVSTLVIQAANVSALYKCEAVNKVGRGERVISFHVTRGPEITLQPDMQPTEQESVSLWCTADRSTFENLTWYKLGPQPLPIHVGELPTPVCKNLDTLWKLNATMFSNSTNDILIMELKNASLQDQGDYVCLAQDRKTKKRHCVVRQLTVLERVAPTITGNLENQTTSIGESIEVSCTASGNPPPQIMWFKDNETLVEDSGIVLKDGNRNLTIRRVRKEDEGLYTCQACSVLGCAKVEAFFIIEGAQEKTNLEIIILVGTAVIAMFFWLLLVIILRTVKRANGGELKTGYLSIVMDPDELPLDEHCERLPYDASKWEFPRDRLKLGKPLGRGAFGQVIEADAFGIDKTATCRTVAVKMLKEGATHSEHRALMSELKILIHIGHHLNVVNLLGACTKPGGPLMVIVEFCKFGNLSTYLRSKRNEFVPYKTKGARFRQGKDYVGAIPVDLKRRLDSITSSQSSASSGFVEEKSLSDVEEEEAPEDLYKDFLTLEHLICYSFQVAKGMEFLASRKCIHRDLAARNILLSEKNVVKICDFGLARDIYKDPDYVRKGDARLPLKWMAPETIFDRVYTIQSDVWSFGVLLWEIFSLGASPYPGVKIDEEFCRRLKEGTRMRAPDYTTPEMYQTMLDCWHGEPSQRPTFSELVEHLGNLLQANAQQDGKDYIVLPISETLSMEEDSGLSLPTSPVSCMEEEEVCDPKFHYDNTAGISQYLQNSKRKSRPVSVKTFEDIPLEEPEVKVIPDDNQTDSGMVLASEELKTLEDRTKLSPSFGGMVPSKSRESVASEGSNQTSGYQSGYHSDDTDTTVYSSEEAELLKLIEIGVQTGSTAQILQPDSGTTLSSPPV

SMILES	hKDR LANCE IC50/EC50 [µM]
C=C(C)[C@H]1Cc2c(ccc3c2O[C@@H]2COc4cc(OC)c(OC)cc4[C@@H]2C3=O)O1 [NCGC00017358-15]	> 20
CCCCCCNC(=O)n1cc(F)c(=O)[nH]c1=O [NCGC00095165-07]	> 20
CC(C)(C)C(=O)OCOP(=O)(COCCn1cnc2c(N)ncnc21)OCOC(=O)C(C)(C)C [NCGC00164624-02]	> 20
Cc1ccccc1C(=O)Nc1ccc(C(=O)N2CCCC(N(C)C)c3ccccc32)cc1 (stereo not drawn) [NCGC00262931-01]	> 20

Test system: alkaline phosphatase (ALP) activity in C2C12 cells
Assay: not given
Type: cell-based
Details: assay number 6; concentration response

SMILES	WntCondMedia_Alk Phos C2C12 IC50/EC50 [µM]
C=C(C)[C@H]1Cc2c(ccc3c2O[C@@H]2COc4cc(OC)c(OC)cc4[C@@H]2C3=O)O1 [NCGC00017358-15]	0.2539
CCCCCCNC(=O)n1cc(F)c(=O)[nH]c1=O [NCGC00095165-07]	5.5533
CC(C)(C)C(=O)OCOP(=O)(COCCn1cnc2c(N)ncnc21)OCOC(=O)C(C)(C)C [NCGC00164624-02]	0.3874
Cc1ccccc1C(=O)Nc1ccc(C(=O)N2CCCC(N(C)C)c3ccccc32)cc1 (stereo not drawn) [NCGC00262931-01]	9.9815

Test system: ECFC/ADSC co-culture cell nuclei number
Assay: not given
Details: not given

SMILES	VEGF_ADSC\ECFC Angio Hoechst NucArea IC50/EC50 [µM]
C=C(C)[C@H]1Cc2c(ccc3c2O[C@@H]2COc4cc(OC)c(OC)cc4[C@@H]2C3=O)O1 [NCGC00017358-15]	> 10
CCCCCCNC(=O)n1cc(F)c(=O)[nH]c1=O [NCGC00095165-07]	> 10
CC(C)(C)C(=O)OCOP(=O)(COCCn1cnc2c(N)ncnc21)OCOC(=O)C(C)(C)C [NCGC00164624-02]	> 10
Cc1ccccc1C(=O)Nc1ccc(C(=O)N2CCCC(N(C)C)c3ccccc32)cc1 (stereo not drawn) [NCGC00262931-01]	> 10

Test system: nuclear β-catenin in C2C12 cells
Assay: cells
Type: cell-based
Details: assay number 5; concentration response

SMILES	WntCondMedia_bCatenin C2C12 IC50/EC50 [µM]
C=C(C)[C@H]1Cc2c(ccc3c2O[C@@H]2COc4cc(OC)c(OC)cc4[C@@H]2C3=O)O1 [NCGC00017358-15]	2.9875
CCCCCCNC(=O)n1cc(F)c(=O)[nH]c1=O [NCGC00095165-07]	4.9829
CC(C)(C)C(=O)OCOP(=O)(COCCn1cnc2c(N)ncnc21)OCOC(=O)C(C)(C)C [NCGC00164624-02]	0.7043
Cc1ccccc1C(=O)Nc1ccc(C(=O)N2CCCC(N(C)C)c3ccccc32)cc1 (stereo not drawn) [NCGC00262931-01]	4.5593

Test system: HeLa cells
Assay: cells
Type: cell-based
Details: assay number 14; 2N

SMILES	Hela CellCycMod PI 2N IC50/EC50 [µM]
C=C(C)[C@H]1Cc2c(ccc3c2O[C@@H]2COc4cc(OC)c(OC)cc4[C@@H]2C3=O)O1 [NCGC00017358-15]	0.3111
CCCCCCNC(=O)n1cc(F)c(=O)[nH]c1=O [NCGC00095165-07]	> 10
CC(C)(C)C(=O)OCOP(=O)(COCCn1cnc2c(N)ncnc21)OCOC(=O)C(C)(C)C [NCGC00164624-02]	> 10
Cc1ccccc1C(=O)Nc1ccc(C(=O)N2CCCC(N(C)C)c3ccccc32)cc1 (stereo not drawn) [NCGC00262931-01]	> 10

Same assay, conditions: assay number 15; S phase

SMILES	Hela CellCycMod PI S Phase IC50/EC50 [µM]
C=C(C)[C@H]1Cc2c(ccc3c2O[C@@H]2COc4cc(OC)c(OC)cc4[C@@H]2C3=O)O1 [NCGC00017358-15]	> 10
CC(C)(C)C(=O)OCOP(=O)(COCCn1cnc2c(N)ncnc21)OCOC(=O)C(C)(C)C [NCGC00164624-02]	0.0608

Same assay, conditions: assay number 16; 4N

SMILES	Hela CellCycMod PI 4N IC50/EC50 [µM]
C=C(C)[C@H]1Cc2c(ccc3c2O[C@@H]2COc4cc(OC)c(OC)cc4[C@@H]2C3=O)O1 [NCGC00017358-15]	0.3108
CCCCCCNC(=O)n1cc(F)c(=O)[nH]c1=O [NCGC00095165-07]	> 10
CC(C)(C)C(=O)OCOP(=O)(COCCn1cnc2c(N)ncnc21)OCOC(=O)C(C)(C)C [NCGC00164624-02]	> 10
Cc1ccccc1C(=O)Nc1ccc(C(=O)N2CCCC(N(C)C)c3ccccc32)cc1 (stereo not drawn) [NCGC00262931-01]	> 10

Same assay, conditions: assay number 17; MI

SMILES	Hela CellCycMod PI MI IC50/EC50 [µM]
C=C(C)[C@H]1Cc2c(ccc3c2O[C@@H]2COc4cc(OC)c(OC)cc4[C@@H]2C3=O)O1 [NCGC00017358-15]	0.2229
CCCCCCNC(=O)n1cc(F)c(=O)[nH]c1=O [NCGC00095165-07]	> 10
CC(C)(C)C(=O)OCOP(=O)(COCCn1cnc2c(N)ncnc21)OCOC(=O)C(C)(C)C [NCGC00164624-02]	> 10
Cc1ccccc1C(=O)Nc1ccc(C(=O)N2CCCC(N(C)C)c3ccccc32)cc1 (stereo not drawn) [NCGC00262931-01]	3.4063

Same assay, conditions: assay number 18; cell number

SMILES	Hela CellCycMod PI Cell Number IC50/EC50 [µM]
C=C(C)[C@H]1Cc2c(ccc3c2O[C@@H]2COc4cc(OC)c(OC)cc4[C@@H]2C3=O)O1 [NCGC00017358-15]	0.1532
CCCCCCNC(=O)n1cc(F)c(=O)[nH]c1=O [NCGC00095165-07]	> 10
CC(C)(C)C(=O)OCOP(=O)(COCCn1cnc2c(N)ncnc21)OCOC(=O)C(C)(C)C [NCGC00164624-02]	0.134
Cc1ccccc1C(=O)Nc1ccc(C(=O)N2CCCC(N(C)C)c3ccccc32)cc1 (stereo not drawn) [NCGC00262931-01]	2.9147

Molecular target: T2, hJAK2 (Homo sapiens, UniProt O60674)
T2 construct: purchased Cerep (LANCE kinase assay platform, contract assay)
T2 sequence (O60674 whole entry): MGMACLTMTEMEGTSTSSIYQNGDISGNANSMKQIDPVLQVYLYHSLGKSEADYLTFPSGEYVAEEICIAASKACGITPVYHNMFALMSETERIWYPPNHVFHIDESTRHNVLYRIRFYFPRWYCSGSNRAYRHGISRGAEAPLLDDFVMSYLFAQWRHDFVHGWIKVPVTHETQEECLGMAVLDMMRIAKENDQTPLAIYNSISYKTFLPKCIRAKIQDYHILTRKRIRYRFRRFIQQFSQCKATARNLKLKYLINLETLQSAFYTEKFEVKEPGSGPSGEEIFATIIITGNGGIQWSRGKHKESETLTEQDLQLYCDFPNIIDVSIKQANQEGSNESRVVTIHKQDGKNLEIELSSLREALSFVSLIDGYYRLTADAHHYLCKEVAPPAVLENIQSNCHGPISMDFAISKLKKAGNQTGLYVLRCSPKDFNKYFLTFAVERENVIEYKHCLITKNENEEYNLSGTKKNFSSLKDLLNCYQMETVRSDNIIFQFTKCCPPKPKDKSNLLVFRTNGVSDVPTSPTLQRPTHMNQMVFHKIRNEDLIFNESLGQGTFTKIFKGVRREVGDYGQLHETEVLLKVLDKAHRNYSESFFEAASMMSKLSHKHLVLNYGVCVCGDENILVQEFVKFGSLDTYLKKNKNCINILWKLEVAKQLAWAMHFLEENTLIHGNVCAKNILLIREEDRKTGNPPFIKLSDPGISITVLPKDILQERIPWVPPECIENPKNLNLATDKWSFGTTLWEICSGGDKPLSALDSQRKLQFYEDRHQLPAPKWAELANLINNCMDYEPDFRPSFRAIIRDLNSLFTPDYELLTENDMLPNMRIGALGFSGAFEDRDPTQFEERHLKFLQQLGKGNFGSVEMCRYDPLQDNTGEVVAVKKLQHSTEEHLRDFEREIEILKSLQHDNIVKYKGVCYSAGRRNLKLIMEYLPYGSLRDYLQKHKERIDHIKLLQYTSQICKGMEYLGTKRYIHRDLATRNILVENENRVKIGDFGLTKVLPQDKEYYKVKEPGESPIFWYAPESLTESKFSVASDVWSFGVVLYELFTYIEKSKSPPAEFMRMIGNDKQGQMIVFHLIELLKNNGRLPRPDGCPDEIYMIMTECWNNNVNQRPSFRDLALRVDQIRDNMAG
Assay: Cerep LANCE kinase assay hJAK2 (S1 assay 33)
Type: biochemical
Details: assay number 33

SMILES	hJAK2 LANCE IC50/EC50 [µM]
C=C(C)[C@H]1Cc2c(ccc3c2O[C@@H]2COc4cc(OC)c(OC)cc4[C@@H]2C3=O)O1 [NCGC00017358-15]	> 20
CCCCCCNC(=O)n1cc(F)c(=O)[nH]c1=O [NCGC00095165-07]	> 20
CC(C)(C)C(=O)OCOP(=O)(COCCn1cnc2c(N)ncnc21)OCOC(=O)C(C)(C)C [NCGC00164624-02]	> 20
Cc1ccccc1C(=O)Nc1ccc(C(=O)N2CCCC(N(C)C)c3ccccc32)cc1 (stereo not drawn) [NCGC00262931-01]	> 20

Molecular target: T3, hGSK3b (Homo sapiens, UniProt P49841)
T3 construct: purchased Cerep (LANCE kinase assay platform, contract assay)
T3 sequence (P49841 whole entry): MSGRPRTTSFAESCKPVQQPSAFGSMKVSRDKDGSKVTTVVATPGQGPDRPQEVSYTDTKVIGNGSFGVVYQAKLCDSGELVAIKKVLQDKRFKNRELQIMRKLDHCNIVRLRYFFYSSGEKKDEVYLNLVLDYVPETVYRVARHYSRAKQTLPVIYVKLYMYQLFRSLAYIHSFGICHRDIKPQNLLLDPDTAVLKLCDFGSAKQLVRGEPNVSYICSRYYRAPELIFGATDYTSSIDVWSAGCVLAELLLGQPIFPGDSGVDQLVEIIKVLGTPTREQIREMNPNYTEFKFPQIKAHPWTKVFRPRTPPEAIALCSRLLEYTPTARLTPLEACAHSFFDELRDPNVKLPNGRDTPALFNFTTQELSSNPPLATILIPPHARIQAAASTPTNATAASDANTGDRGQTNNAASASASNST
Assay: Cerep LANCE kinase assay hGSK3b (S1 assay 34)
Type: biochemical
Details: assay number 34

SMILES	hGSK3b LANCE IC50/EC50 [µM]
C=C(C)[C@H]1Cc2c(ccc3c2O[C@@H]2COc4cc(OC)c(OC)cc4[C@@H]2C3=O)O1 [NCGC00017358-15]	> 20
CCCCCCNC(=O)n1cc(F)c(=O)[nH]c1=O [NCGC00095165-07]	> 20
CC(C)(C)C(=O)OCOP(=O)(COCCn1cnc2c(N)ncnc21)OCOC(=O)C(C)(C)C [NCGC00164624-02]	> 20
Cc1ccccc1C(=O)Nc1ccc(C(=O)N2CCCC(N(C)C)c3ccccc32)cc1 (stereo not drawn) [NCGC00262931-01]	> 20

Molecular target: T4, hFLT3 (Homo sapiens, UniProt P36888)
T4 construct: purchased Cerep (LANCE kinase assay platform, contract assay)
T4 sequence (P36888 27-993): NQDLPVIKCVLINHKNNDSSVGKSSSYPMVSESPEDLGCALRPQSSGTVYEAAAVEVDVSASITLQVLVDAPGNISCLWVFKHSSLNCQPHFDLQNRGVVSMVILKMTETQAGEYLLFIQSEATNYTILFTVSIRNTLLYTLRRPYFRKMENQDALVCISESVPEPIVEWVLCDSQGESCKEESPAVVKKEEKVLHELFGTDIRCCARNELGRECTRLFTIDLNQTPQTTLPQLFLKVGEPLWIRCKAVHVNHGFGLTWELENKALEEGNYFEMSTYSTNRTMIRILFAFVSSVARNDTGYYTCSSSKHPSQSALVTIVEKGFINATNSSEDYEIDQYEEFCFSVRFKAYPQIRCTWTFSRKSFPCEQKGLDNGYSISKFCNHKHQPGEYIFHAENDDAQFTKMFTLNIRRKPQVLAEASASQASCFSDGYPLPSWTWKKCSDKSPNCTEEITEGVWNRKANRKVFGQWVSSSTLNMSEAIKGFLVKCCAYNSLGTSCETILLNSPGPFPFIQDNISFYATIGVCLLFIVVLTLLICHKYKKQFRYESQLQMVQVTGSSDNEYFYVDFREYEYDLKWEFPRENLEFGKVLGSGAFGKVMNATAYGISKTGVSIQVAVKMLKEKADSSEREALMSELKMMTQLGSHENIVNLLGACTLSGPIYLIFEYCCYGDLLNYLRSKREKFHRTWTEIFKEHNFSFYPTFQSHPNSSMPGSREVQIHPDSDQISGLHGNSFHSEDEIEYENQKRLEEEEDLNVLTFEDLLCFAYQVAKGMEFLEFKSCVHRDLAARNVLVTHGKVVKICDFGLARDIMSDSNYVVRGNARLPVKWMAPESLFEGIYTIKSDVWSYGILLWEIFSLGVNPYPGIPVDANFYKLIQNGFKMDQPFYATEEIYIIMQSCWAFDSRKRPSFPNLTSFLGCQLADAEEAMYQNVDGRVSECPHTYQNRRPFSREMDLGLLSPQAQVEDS
Assay: Cerep LANCE kinase assay hFLT3 (S1 assay 35)
Type: biochemical
Details: assay number 35

SMILES	hFLT3 LANCE IC50/EC50 [µM]
C=C(C)[C@H]1Cc2c(ccc3c2O[C@@H]2COc4cc(OC)c(OC)cc4[C@@H]2C3=O)O1 [NCGC00017358-15]	> 20
CCCCCCNC(=O)n1cc(F)c(=O)[nH]c1=O [NCGC00095165-07]	> 20
CC(C)(C)C(=O)OCOP(=O)(COCCn1cnc2c(N)ncnc21)OCOC(=O)C(C)(C)C [NCGC00164624-02]	> 20
Cc1ccccc1C(=O)Nc1ccc(C(=O)N2CCCC(N(C)C)c3ccccc32)cc1 (stereo not drawn) [NCGC00262931-01]	> 20

Molecular target: T5, hp70S6K1 (RPS6KB1) (Homo sapiens, UniProt P23443)
T5 construct: purchased Cerep (LANCE kinase assay platform, contract assay)
T5 sequence (P23443 whole entry): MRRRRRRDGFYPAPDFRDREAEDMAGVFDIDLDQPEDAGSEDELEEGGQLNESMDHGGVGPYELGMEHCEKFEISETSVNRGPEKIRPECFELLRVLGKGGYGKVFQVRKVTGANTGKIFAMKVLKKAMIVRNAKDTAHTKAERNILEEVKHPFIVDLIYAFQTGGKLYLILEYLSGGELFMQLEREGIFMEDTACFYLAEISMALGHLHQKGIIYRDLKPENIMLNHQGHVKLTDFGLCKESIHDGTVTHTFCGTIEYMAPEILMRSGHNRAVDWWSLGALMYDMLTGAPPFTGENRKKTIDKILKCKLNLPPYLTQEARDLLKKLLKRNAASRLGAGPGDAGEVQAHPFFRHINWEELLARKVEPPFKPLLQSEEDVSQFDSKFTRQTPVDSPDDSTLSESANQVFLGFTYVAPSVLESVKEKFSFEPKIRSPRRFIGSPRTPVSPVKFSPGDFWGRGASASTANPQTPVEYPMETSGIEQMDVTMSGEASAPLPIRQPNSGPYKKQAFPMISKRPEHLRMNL
Assay: Cerep LANCE kinase assay hp70S6K1 (S1 assay 31)
Type: biochemical
Details: assay number 31

SMILES	hp70S6K1 LANCE IC50/EC50 [µM]
C=C(C)[C@H]1Cc2c(ccc3c2O[C@@H]2COc4cc(OC)c(OC)cc4[C@@H]2C3=O)O1 [NCGC00017358-15]	> 20
CCCCCCNC(=O)n1cc(F)c(=O)[nH]c1=O [NCGC00095165-07]	> 20
CC(C)(C)C(=O)OCOP(=O)(COCCn1cnc2c(N)ncnc21)OCOC(=O)C(C)(C)C [NCGC00164624-02]	> 20
Cc1ccccc1C(=O)Nc1ccc(C(=O)N2CCCC(N(C)C)c3ccccc32)cc1 (stereo not drawn) [NCGC00262931-01]	> 20

Test system: endothelial tube formation in co-cultures of ECFCs and ADSCs treated with VEGF
Assay: cells
Type: cell-based, human
Details: not given

SMILES	VEGF_ADSC\ECFC Angio CD31 TubeArea IC50/EC50 [µM]
C=C(C)[C@H]1Cc2c(ccc3c2O[C@@H]2COc4cc(OC)c(OC)cc4[C@@H]2C3=O)O1 [NCGC00017358-15]	0.0257
CCCCCCNC(=O)n1cc(F)c(=O)[nH]c1=O [NCGC00095165-07]	4.486
CC(C)(C)C(=O)OCOP(=O)(COCCn1cnc2c(N)ncnc21)OCOC(=O)C(C)(C)C [NCGC00164624-02]	0.3913
Cc1ccccc1C(=O)Nc1ccc(C(=O)N2CCCC(N(C)C)c3ccccc32)cc1 (stereo not drawn) [NCGC00262931-01]	> 10
